Data taken from paper PMC11859423, “Fluorescent Probes to Image the KCa3.1 Channel in Tumor Cells” (Pharmaceutics, 2025).
Each block holds one compound with its values, some of them ahead of it.

How the values were obtained:
[1] = target: T1, KCa3.1 channel in A549-3R cells (Homo sapiens, UniProt O15554); set-up: method as in PMID 36315933; settings: previously reported; cited from earlier work
T1 construct: the non-small cell lung cancer cell line A549-3R with a high expression of the KCa3.1 channel was employed; endogenous in cells; host or cells: A549-3R cells

[2] = set-up: method as in PMID 36315933; settings: previously reported values; cited from earlier work
[3] = logP by HPLC retention time correlation; format: physicochemical; settings: standardized reversed phase HPLC system
Protocol: The logP values were recorded using HPLC analysis. Thus, the retention time of the test compound in a standardized reversed phase HPLC system is correlated with the retention times of compounds with known logP values.
In addition to the logD7.4 values, the logP values of the fluorescent probes were recorded by HPLC, i.e., after calibration of the method, the retention times were correlated with the logP values or the compounds [33]. […] Fluorescein-labeled ligands 21a and 21b are considerably more polar than the corresponding bodipy-labeled senicapoc derivatives.

[4] = target: T1, KCa3.1 channel in A549-3R cells; assay: Staining of fixed A549-3R tumor cells (Protocol 1), fluorescence microscopy; format: cell-based; settings: 10 µM in PBS, 10 min, 4 °C, Protocol 1
Protocol: For the fixation of the cells, the DMEM medium was removed from the glass bottom dish after incubation for 24 h, and the cells were washed with 1 mL of PBS. Subsequently, 1 mL of 4% paraformaldehyde in PBS solution was added to the glass bottom dish and the mixture was incubated for 30 min at room temperature. Thereafter, the cells were washed five times with 1 mL of PBS and used for the cell staining experiments.
After fixation of the cells (Section 2.10.2), 300 µL of the 10 µM staining solution was added to the glass bottom dish. The cells were incubated for 10 min at 4 °C in a dark chamber. After incubation, the cells were washed five times with 1 mL of PBS and used subsequently for fluorescence microscopy.
An Axiovert 200 inverted microscope (Carl Zeiss AG, Jena, Germany) with a ×100 oil immersion objective and a digital camera (SPOT RT SE from Diagnostic Instruments Inc., Livingston, UK) were used. The camera was controlled by MetaVue software (version 6.3r6, Visitron, Germany). Two different filter sets were employed, the FITC filter set (Carl Zeiss Filter Set 10 bandwidth excitation filter 450–490, color splitter 510, bandpass filter 515–565) and the TRITC filter set (Carl Zeiss Filter Set 15, bandpass excitation filter 546/12, dichroic mirror 580, emission filter Long Pass 590).
Using the free imaging software ImageJ (1.53f51, NIH, USA), squares with an edge length of 50 × 50 pixels, corresponding to an area of 9 µm^2, were randomly placed in a cell and signals with Full Width at Half Maximum (FWHM) of ≤5 pixels (~300 nm) were counted as a KCa3.1 channel. For the evaluation, 7 squares were analyzed.
For the staining experiments, the non-small cell lung cancer cell line A549-3R with a high expression of the KCa3.1 channel was employed. An optimized staining protocol (Protocol 1) described previously was followed to analyze the imaging properties of the fluorescent probes. In brief, the 10 µM solution of the senicapoc–dye conjugate in PBS was added to adherent A549-3R cells in a glass bottom dish and the set-up was incubated for 10 min at 4 °C in a dark chamber. After careful washing, the cells were analyzed with a fluorescence microscope.
The images were analyzed with respect to size and density of the fluorescent dots. For this purpose, a square with a size of 50 × 50 pixels was randomly placed on the cell images using ImageJ. The intensities of the signals within the square were analyzed to calculate the Full Width at Half Maximum (FWHM) for each selected dot, which represents a measure for the signal size. For the accurate representation of a single KCa3.1 channel, the FWHM should be in the range of five pixels. Signals with a FWHM of ≤5 pixels within the square were regarded as labeled KCa3.1 channels and the number of identified channels was used to determine the density of the ion channels on the cells (Figure S8, Supplementary Materials).

[5] = logD7.4 by micro shake flask method (n-octanol / MOPS buffer pH 7.4, LC-MS); format: physicochemical; settings: read-out: logD7.4 ± SD (Micro Shake Flask)
Protocol: The logD7.4 values were recorded using the micro shake flask method. In this method, the test compound is distributed between n-octanol and MOPS buffer pH 7.4, and the amount of the compound in the buffer layer is determined by mass spectrometry.
The new fluorescent dyes were designed to increase the polarity and reduce the non-specific labeling of lipophilic membranes of cells. Moreover, a higher polarity should lead to increased water solubility and thus improved handling of the dyes. The logD7.4 value was recorded as a measure of the polarity/lipophilicity using our recently published micro-shake flask method. According to this method, the amount of compound in the aqueous 3-morpholinopropanesulfonic acid (MOPS) buffer pH 7.4 was determined by LC-MS [31, 32].

[6] = UV-Vis absorption and time-resolved photoluminescence spectroscopy; format: physicochemical; settings: measured in H2O, c = 10^−5 M, 298 K
Protocol: All solvents used were of spectrometric grade (Uvasol®). UV-visible absorption spectra were measured using a Shimadzu UV–VIS spectrophotometer (UV-3600i). Photoluminescence quantum yields were measured with a Hamamatsu Photonics absolute PL quantum yield measurement system (C9920-02) equipped with a L9799-01 CW Xe light source (150 W), a monochromator, a C7473 photonic multi-channel analyzer, an integrating sphere and employing U6039-05 software, version 3.6.0. (Hamamatsu Photonics, Ltd., Shizuoka, Japan). Steady-state excitation and emission spectra were recorded on a FluoTime 300 spectrometer from PicoQuant equipped with a 300 W ozone-free Xe lamp (200–1100 nm), a 10 W Xe-flash lamp (200–1100 nm, pulse width ca. 1 µs) with repetition rates of 1–300 Hz, a double-grating excitation monochromator (Czerny–Turner type, grating with 1200 lines/mm, blaze wavelength: 300 nm), diode lasers (pulse width < 20 ps) operated by a computer-controlled laser driver PDL-828 “Sepia II” (repetition rate up to 80 MHz, burst mode for slow and weak decays), two emission monochromators (Czerny–Turner, selectable between double-grating blazed at 500 nm with 2.7 nm/mm dispersion and 1200 lines/mm, or single-grating blazed at 1250 nm with 5.4 nm/mm dispersion and 600 lines/mm) with adjustable slit width between 25 μm and 7 mm. Glam–Thompson polarizers for excitation (after the Xe-lamps) and emission (after the sample) were used. Different sample holders (Peltier-cooled mounting unit ranging from −15 to 110 °C or an adjustable front-face sample holder), along with two detectors (namely a PMA Hybrid-07 from PicoQuant with transit time spread FWHM < 50 ps, 200–850 nm, or a H10330C-45-C3 NIR detector with transit time spread FWHM 0.4 ns, 950–1400 nm from Hamamatsu) were used. Steady-state spectra and photoluminescence lifetimes were recorded in TCSPC mode by a PicoHarp 300 (minimum base resolution 4 ps) or in MCS mode by a TimeHarp 260 (where up to several ms can be traced). Emission and excitation spectra were corrected for source intensity (lamp and grating) by standard correction curves. For samples with lifetimes in the ns order, an instrument response function calibration (IRF) was performed using a diluted Ludox® dispersion. Lifetime analysis was performed using the commercial EasyTau 2 software, version 2.3. (PicoQuant, Berlin, Germany). The quality of the fit was assessed by minimizing the reduced chi squared function (χ^2) and visual inspection of the weighted residuals and their autocorrelation.
Fluorescence microscopy was used for the analysis of KCa3.1 channel labeling of cells with fluorescent dyes. Therefore, the photophysical properties of fluorescently labeled senicapoc derivatives 15a, 21a, and 22 were determined. Since the fluorophores are separated from the rest of the molecule by a linker, the photophysical properties could be recorded using azide precursors 6a, 6b, and 7a as well.

KCa3.1 channels = settings: read-out: IC50 (KCa3.1 channel); cited from earlier work

- chromatographic logP [3]: 5.4
Compound: CC1=CC(C)=[N+]2C1=C(c1ccc(OCCOCCn3cc(COc4ccc(C(C(N)=O)(c5ccccc5)c5ccc(F)cc5)cc4)nn3)cc1)c1c(C)cc(C)n1[B-]2(F)F (stereo not drawn) [9a]
- staining properties [1]: promising staining properties
- logD7.4 ± SD (Micro Shake Flask) [2]: 4.73 ± 0.03

- chromatographic logP [3]: 4.4
Compound: CO[B-]1(F)n2c(C)cc(C)c2C(c2ccc(OCCOCCn3cc(COc4ccc(C(C(N)=O)(c5ccccc5)c5ccc(F)cc5)cc4)nn3)cc2)=C2C(C)=CC(C)=[N+]21 (stereo not drawn) [10a]
- staining properties [1]: promising staining properties
- logD7.4 ± SD (Micro Shake Flask) [2]: 4.60 ± 0.23

- chromatographic logP ([3]; HPLC at pH 6.0): 1.5
- logD [5]: 1.69 ± 0.04
- Absorption λmax [6]: 496 nm
- Emission λmax [6]: 521 nm
- Stokes Shift [6]: 25 nm
- ΦF absolute quantum yield [6]: 0.32 ± 0.02
- τ photoluminescence lifetime [6]: 4.21 ± 0.02 ns
Compound: NC(=O)C(c1ccccc1)(c1ccc(F)cc1)c1ccc(OCCOCCNC(=S)Nc2ccc3c(c2)C(=O)OC32c3ccc(O)cc3Oc3cc(O)ccc32)cc1 (stereo not drawn) [21a, 2-[4-(2-{2-[3-(3′,6′-Dihydroxy-3-oxo-3H-spiro[[2]benzofuran-1,9′-xanthen]-5-yl)thioureido]ethoxy}ethoxy)phenyl]-2-(4-fluorophenyl)-2-phenylacetamide]
- staining pattern of fixed A549-3R tumor cells [4]: A weak green fluorescence of the membrane and an intense staining of the nucleus

Compound: NC(=O)C(c1ccccc1)(c1ccc(F)cc1)c1ccc(F)cc1 [senicapoc]
- IC50 (KCa3.1 channels): 11 nM
